Measured values: patent US20130304029A1, “LOADING AND RELEASE OF WATER-INSOLUBLE DRUGS” (Boston Scientific Scimed, Inc., priority 1997, published 2013)

Legend:
[1] = In-vivo delivery of paclitaxel from polyacrylic acid-based coated balloon catheter; parameters: species or system pig; details: for Amount of paclitaxel released in bloodstream: loaded minus extracted; for Amount of paclitaxel extracted from balloon after delivery: polyacrylic acid-based coated balloon catheter
Procedure: A 9.8 mg/ml solution of radio-labeled paclitaxel in chloroform is prepared. A total of 50 μl of the solution is applied via pipet to a balloon catheter having a polyacrylic acid-based coating. The paclitaxel from the coated balloon catheter is then released in-vivo to porcine arteries. After release for a predetermined amount of time, the paclitaxel remaining in the coating is extracted using two sequential ethanol washes. The amount of paclitaxel released in the pig bloodstream, as calculated from the amount of paclitaxel loaded into the coating minus that extracted from the coating after delivery, is shown in Table II.

[2] = Paclitaxel content of polyurethane coated stents by extraction in dichloromethane; assay type: physicochemical; details: 30 mg/ml paclitaxel concentration
Procedure: Slotted tube stainless steel stents are coated with polyurethane by spraying a 1 wt % solution of CHRONOFLEX® polyurethane (made by CT Biomaterials) in tetrahydrofuran directly onto the stent surface. The coated stents are dried in a vacuum oven for three hours at 70° C.
Each polyurethane coated stent is placed in a vial, which is filled to maximum volume (1.5 ml) with a solution of paclitaxel in ethanol, and sealed. The stent is stored in the vial for three days at room temperature. The stent is then removed from the vial and dried for one hour at 65° C.
The above procedure is conducted using solutions of varying concentrations. Each stent is analyzed for paclitaxel content by extraction in dichloromethane solvent. Samples 1 and 2 were obtained using a paclitaxel concentration of 10 mg/ml, samples 3 and 4 using a 20 mg/ml solution and sample 5 and 6 using a 30 mg/ml solution.
Seven polyurethane coated stents are loaded using a 30 mg/ml paclitaxel solution, removed and dried as set forth above. Paclitaxel from four of the stents is extracted in dichloromethane solvent.

[3] = Saturation concentration of paclitaxel in ethanol; assay type: physicochemical
Procedure: Nevertheless, the 30 mg/ml paclitaxel concentration is chosen for release studies as it produces the maximum paclitaxel loading (21-23%), while still being sufficiently below the saturation concentration for paclitaxel in ethanol (39 mg/ml).

CC(=O)O[C@H]1C(=O)[C@@]2(C)[C@H]([C@H](OC(=O)c3ccccc3)[C@]3(O)C[C@H](OC(=O)[C@H](O)[C@@H](NC(=O)c4ccccc4)c4ccccc4)C(C)=C1C3(C)C)[C@]1(OC(C)=O)CO[C@@H]1C[C@@H]2O [paclitaxel]
% of paclitaxel released in bloodstream ([1]; 1 minute in bloodstream): 63%
Amount of paclitaxel released in bloodstream ([1]; 1 minute in bloodstream): 307 µg
Amount of paclitaxel extracted from balloon after delivery ([1]; 1 minute in bloodstream): 182 ± 1 µg
% of paclitaxel released in bloodstream ([1]; 5 minutes in bloodstream): 68%
Amount of paclitaxel released in bloodstream ([1]; 5 minutes in bloodstream): 330 µg
Amount of paclitaxel extracted from balloon after delivery ([1]; 5 minutes in bloodstream): 160 ± 30 µg
maximum paclitaxel loading [2]: 21-23%
saturation concentration for paclitaxel in ethanol [3]: 39 mg/mL
